Patent US11351185B2, “Use of isovalerylspiramycins as anti-cancer agents to inhibit metastasis” (priority 2020, dated 2022)
Where “and” joins values, the source holds several entries; their conditions need not be identical. Identical values can stand only once. Entries after “also recorded” stand apart in the source; their conditions may differ.

Key:
[1] = tested on: SELH, Nucleolin, Fibrillarin, POL1, NPM, p53; test: Nucleolar stress response, immunofluorescence and western blot; type: cell-based; settings: LN229
Experimental: (§1) SELH is localized in the nucleolus, which is a sensor of oxidative stress. Yang et al., Nature communications 7: 13599 (2016); Novoselov et al., J. Biol. Chem. 282: 11960 (2007). […] JNK2 activation by oxidative stress inactivated RNA polymerase I (POL1) transcription factor TIF1A in the nucleoli to down-regulate rRNA synthesis. Mayer et al., Genes Dev. 19: 933 (2005). To investigate whether the ribosomal biogenesis was disrupted by ISP I, pre-rRNA transcription was evaluated using real-time RT-PCR analysis in LN229 cells. […] To examine the mechanisms by which ISP I disrupts POL1 transcription, the inventors initially evaluated JNK2 activity and the overall state of the transcription machinery in ISP I-treated LN229 cells.
Western blotting was performed to detect the protein expression level of SELH, NRF2 and γH2AX regulated by ISP I. The cells were lysed by RIPA buffer from ThermoFisher Scientific, and the concentration was measured using DC Protein Assay, a Bio-Rad product. Equal amounts of protein of each sample were loaded for gel electrophoresis and were transferred to nitrocellulose membrane, blocked and incubated overnight at 4° C. with primary antibodies. Then the membranes were washed with TBST (3 times, 10 min each). Exposure, imaging, and data analysis were done using a KwikQuant Imager system, a product of Kindle Biosciences (Greenwich, Conn. USA). The following antibodies were used: anti-phospho-histone H2A.X (Ser139), anti-NRF2 (Cell Signaling, Danvers, Mass. USA), anti-SELH (Abcam, Cambridge, Mass. USA), anti-GAPDH (Millipore, Temecula, Calif. USA).
For immunofluorescence assay, cells were seeded on a 35-mm confocal dish with glass bottom and were treated with ISP I. After 24 hours, cells were fixed with 4% paraformaldehyde and were labeled with primary antibodies against γH2AX overnight at 4° C. Then the cells were incubated with secondary antibody conjugated with Alexa Fluor-594 (Invitrogen), followed by staining with DAPI for nuclei. Images were obtained using Zeiss LSM 780 microscopy (Carl Zeiss, Oberkochen Germany).

POL1 occupancy on rDNA = test: Chromatin immunoprecipitation (CHIP) assay; type: cell-based; settings: LN229 cells
Experimental: as §1
ChIP assays were performed using a SimpleCHIP Enzymatic Chromatin IP Kit (Magnetic beads) following the manufacturer's instructions (Cell Signaling Technology; catalog 9003). Cross-linked protein-DNA complexes were precipitated by incubating with rabbit anti-POL1A (CST; 24799s) or rabbit IgG (negative control) overnight and then with magnetic beads for 2 hours. Purified DNA fragments, […], were analyzed quantitatively by real-time PCR with primers against the rDNA promoter and gene body, following the standard-curve method. The standard curves were created by serial dilution of 2% input chromatin DNA. […]

[2] = tested on: renal cell carcinoma (RCC) cell lines ACHN, UM-RC-2, RCC4 and 786-O; test: CCK8 cell viability assay, renal cell carcinoma cell lines; type: cell-based; settings: 48 hours
Experimental: To confirm the cytotoxic effect observed in the glioblastoma cell lines, the inventors assessed ISP I's effect on renal cell carcinoma (RCC) cell lines (ACHN, UM-RC-2, RCC4 and 786-0). Cell viability was assessed similarly via CKK8 analysis. […] (FIG. 4C, D).
Cell viability was measured by Cell Counting Kit-8 (CCK-8, Dojindo Molecular Technologies, Tokyo, Japan). Cells were seeded in 96-well plates at a density of 3×10^3 cells/well and cultured for 24 hours before treatment with ISP I at different concentration. After treatment for a gradient ISP I concentration from 0 to 20 μg/ml for 48 hours, while control groups were only treated in PBS solution, 10 μl of CCK-8 solution were added to each well and cells were incubated for an additional 2 hours. The absorbance in each well at a wavelength of OD450 was detected by the Synergy H1 microplate reader, a product of BioTek (Winooski, Vt. USA).

SELH = molecular target: T1, SELH (Homo sapiens, UniProt Q8IZQ5); test: Cellular thermal shift assay (CETSA) / thermo-stability assay; type: binding; parameters: endogenous in cells; host or cells: LN229, 786-O; settings: vs DMSO
T1 sequence (Q8IZQ5 1-122): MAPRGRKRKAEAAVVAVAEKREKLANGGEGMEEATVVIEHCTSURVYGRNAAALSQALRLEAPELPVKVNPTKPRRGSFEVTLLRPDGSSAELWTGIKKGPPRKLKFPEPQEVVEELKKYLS
Text: Next, the inventors used a thermo-stability assay to confirm SELH was targeted by ISP I in LN229 and 786-O cell lines. The principle of the assay is based on altered protein thermal stabilization/destabilization due to ligand binding in living cells. […] (FIG. 5B and FIG. 6A). To verify further the specificity of ISP I's targeting of SELH, the inventors designed a surface plasmon resonance assay to assess the interaction of ISP I with SELH synthesized in bacteria.
CETSA experiments were performed to determine the ISP I-related ligand induced shifts. Intact and live cells in a 10-cm dish were harvested, washed and resuspended in PBS with protease inhibitor cocktail. Protein of the cells was extracted by freeze-thaw more than three times, using liquid nitrogen. The supernatant was centrifuged at 20, 000 g for 20 min at 4° C. Then the samples were aliquoted to several groups incubated with different concentrations of ISP I for 1 hour. After that, samples were aliquoted into PCR tubes and thereafter heated at gradient temperature ranging from 40° C. to 80° C. for 3 min. Then the samples were centrifuged again and resolved using 4-12% SDS-PAGE followed by western blot experiments.

LN229 and U251 cells = test: Cell-cycle analysis by flow cytometry (EdU and DAPI), glioblastoma cells; type: cell-based
Experimental: To assess the cytotoxicity of ISPs I, II and III, five glioblastoma cell lines, T98G, U118, A172, LN229 and U251, were treated with serial doses of each ISP, respectively, for 48 hours. Cell viability of these cell lines were evaluated by CCK8 assay, and the 50% inhibitory concentration (IC50) was calculated (FIG. 2A, B and FIG. 3). […] Cell distribution in each phase of the cell cycle was assessed in LN229 and U251 cells by flow cytometry, followed by EdU and DAPI staining.
For monitoring cell-cycle arrest of ISP I-treated cells, Click-iT EdU Flow Cytometry Assay Kits were used, a product of ThermoFisher Scientific. Cells were co-cultured with EdU at a concentration of 10 μM for 1 hour. After fixation and permeabilization, EdU-positive cells were labeled with Alexa Fluor 647 fluorescein. DAPI also was used for measuring total DNA content to identify differences in cell cycle phases. Data were collected by means of a BD LSRFortessa flow cytometer using FlowJo software. Cells that are positive with EdU and DAPI were in S-Phase of the cell cycle.

COC1C(O)CC(=O)OC(C)CC=CC=CC(OC2CCC(N(C)C)C(C)O2)C(C)CC(CC=O)C1OC1OC(C)C(OC2CC(C)(O)C(OC(=O)CC(C)C)C(C)O2)C(N(C)C)C1O (stereo not drawn) [ISP I, 4″-isolvalerylspiramycin I] was tested, and the “NPM expression (western blot)” value [1] was “decreased nucleolar protein, NPM and P53 expression in a dose dependent manner; also recorded: reduced NMP expression”, the “SELH expression in the nucleolus (immunofluorescence)” value ([1]; 8 h, 10 μg/mL) was “loss and reduction of SELH expression in the nucleolus” and the “nucleolar labeling of Nucleolin, Fibrillarin, POL1, NPM (immunofluorescence)” value ([1]; 8 h, 10 μg/mL) was “loss and dispersion of nucleolar proteins (Neucleolin, Fibrillarin, POL1, NPM)”. The “POL1 recruitment / occupancy on rDNA (CHIP)” value (POL1 occupancy on rDNA) was “reduces the occupancy of POL1 on rNDA; also recorded: significantly reduced POL1 recruitment to the promoter coding regions of rDNA”, the “cytotoxic effect on RCC cell lines” value [2] was “demonstrated a cytotoxic effect” and the “most / least sensitive RCC cell line to cytotoxic effect” value ([2]; ACHN, UM-RC-2, RCC4, 786-O) was “ACHN appeared to be the most sensitive and 786-O demonstrated to be the least sensitive”. For the same compound, the “thermal stabilisation of SELH (western blot)” value (SELH; 786-O cells) was “ISP I-protected SELH was observed along with a rise in temperature; also recorded: protective effect of ISP I on SELH was present over a range of increasing temperatures”, the “thermal stabilisation of SELH (western blot)” value (SELH; LN229 cells) was “ISP I-protected SELH was observed along with the rise of temperature; also recorded: protective effect of ISP I on SELH was present over a range of increasing temperatures” and the “cell distribution in cell-cycle phases” value (LN229 and U251 cells) was “G0/G1 arrest; also recorded: dose-dependent increase in the G0/G1 phase and a decrease in the S phase”.
